Measured values: paper doi:10.1101/362293v1 (biorxiv, 2018)
Numbering of substitutions follows the chain as printed. pKd, pKi: −log10 of the molar value.

Legend:
CobB [1] = target: T1, CobB (Escherichia coli, UniProt P75960, R8A); assay: isothermal titration calorimetry; assay type: binding
T1 sequence (P75960 1-279 R8A): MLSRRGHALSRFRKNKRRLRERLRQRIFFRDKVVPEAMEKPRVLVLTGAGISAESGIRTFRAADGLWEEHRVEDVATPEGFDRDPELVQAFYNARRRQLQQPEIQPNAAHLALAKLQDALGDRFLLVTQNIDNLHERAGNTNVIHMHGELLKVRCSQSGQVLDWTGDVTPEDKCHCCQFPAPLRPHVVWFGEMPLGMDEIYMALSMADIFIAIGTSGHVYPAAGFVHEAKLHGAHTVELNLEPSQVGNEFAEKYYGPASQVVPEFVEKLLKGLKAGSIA

CobB [2] = target: T2, CobB (Escherichia coli, UniProt P75960, E21A); assay: isothermal titration calorimetry; assay type: binding
T2 sequence (P75960 1-279 E21A): T1 sequence (P75960 1-279 R8A) with A8R, E21A

[3] = target: T3, S. typhimurium CobB; CobB^S. typhimurium (Salmonella enterica, UniProt P0A2F2); assay: affinity measurement, method not given; assay type: binding
T3 sequence (P0A2F2 1-273): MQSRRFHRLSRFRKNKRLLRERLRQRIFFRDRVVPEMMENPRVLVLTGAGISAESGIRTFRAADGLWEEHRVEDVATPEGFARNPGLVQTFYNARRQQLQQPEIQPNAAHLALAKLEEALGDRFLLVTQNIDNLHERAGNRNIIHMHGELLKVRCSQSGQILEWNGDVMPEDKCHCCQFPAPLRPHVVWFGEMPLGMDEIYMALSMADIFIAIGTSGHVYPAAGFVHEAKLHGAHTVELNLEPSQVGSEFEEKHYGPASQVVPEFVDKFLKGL

CobB [4] = target: T4, CobB (Escherichia coli, UniProt P75960, R17A); assay: isothermal titration calorimetry; assay type: binding
T4 sequence (P75960 1-279 R17A): T1 sequence (P75960 1-279 R8A) with A8R, R17A

CobB [5] = target: T5, CobB (Escherichia coli, UniProt P75960); assay: isothermal titration calorimetry; assay type: binding
T5 sequence (P75960 1-279): T1 sequence (P75960 1-279 R8A) with A8R

CobB [6] = target: T5, CobB; assay: deacetylation of an acetylated peptide, HPLC; assay type: biochemical

Nc1nc2c(ncn2[C@@H]2O[C@@H]3CO[P@](=O)(O)O[C@H]4[C@@H](O)[C@H](n5cnc6c(=O)[nH]c(N)nc65)O[C@@H]4CO[P@](=O)(O)O[C@H]3[C@H]2O)c(=O)[nH]1 [c-di-GMP]
pKd (CobB [1]): 2.74
pKd (CobB [2]): 3.49
pKd [3]: 4.81
pKd (CobB [4]): 2.80
pKd (CobB [5]): 4.67
pKi (CobB [6]): 4.49
